Test results: ChEMBL document CHEMBL3865826, “Synthesis and biological evaluation of a series of non-hemiacetal ester derivatives of artemisinin” (Eur J Med Chem, 2016)

Experiments:
[1] = Selectivity index, ratio of IC50 for CHO cells to IC50 for chloroquine-sensitive asexual erythrocyte stage form Plasmodium falciparum NF54; type: toxicity, cell-based; conditions: hamster, read-out: Ratio IC50
MCF7 = assay: Selectivity index, ratio of IC50 for human WI38 cells to IC50 for human MCF7 cells; type: functional
[2] = Cytotoxicity against human WI38 cells assessed as reduction in cell viability measured after 48 hrs by SRB assay; type: toxicity, cell-based, WI-38
[3] = Growth inhibition of human UACC62 cells measured after 24 hrs by SRB assay; type: functional, cell-based; conditions: UACC-62, 24 h
[4] = Selectivity index, ratio of IC50 for human MCF7 cells to IC50 for chloroquine-resistant asexual erythrocyte stage form Plasmodium falciparum Dd2; type: functional
[5] = Growth inhibition of human MCF7 cells measured after 24 hrs by SRB assay; type: functional, cell-based; conditions: MCF7, 24 h
WI-38 = assay: Selectivity index, ratio of IC50 for human WI38 cells to IC50 for human TK10 cells; type: functional
Plasmodium falciparum [6] = assay: Antiplasmodial activity against chloroquine-resistant asexual erythrocyte stage form Plasmodium falciparum Dd2 measured after 48 hrs by pLDH assay; type: functional; conditions: Dd2, 48 h
[7] = Thermal stability of the compound assessed as melting point by thermogravimetric analysis; type: physicochemical
CHO [8] = assay: Selectivity index, ratio of IC50 for CHO cells to IC50 for human UACC62 cells; type: functional
CHO [9] = assay: Selectivity index, ratio of IC50 for CHO cells to IC50 for human TK10 cells; type: functional
UACC-62 = assay: Selectivity index, ratio of IC50 for human WI38 cells to IC50 for human UACC62 cells; type: functional
[10] = Cytotoxicity against CHO cells assessed as reduction in cell viability measured after 48 hrs by MTT assay; type: toxicity, cell-based, Cricetulus griseus; conditions: Chinese hamster
[11] = Selectivity index, ratio of IC50 for human UACC62 cells to IC50 for chloroquine-resistant asexual erythrocyte stage form Plasmodium falciparum Dd2; type: functional, UACC-62
[12] = Growth inhibition of human TK10 cells measured after 24 hrs by SRB assay; type: functional, cell-based; conditions: TK-10, 24 h
[13] = Selectivity index, ratio of IC50 for human WI38 cells to IC50 for chloroquine-sensitive asexual erythrocyte stage form Plasmodium falciparum NF54; type: toxicity, cell-based, WI-38; conditions: read-out: Ratio IC50
[14] = Selectivity index, ratio of IC50 for human TK10 cells to IC50 for chloroquine-resistant asexual erythrocyte stage form Plasmodium falciparum Dd2; type: functional, TK-10
[15] = Resistance index, ratio of IC50 for chloroquine-resistant asexual erythrocyte stage form Plasmodium falciparum Dd2 to IC50 for chloroquine-sensitive asexual erythrocyte stage form Plasmodium falciparum NF54; type: functional
CHO [16] = assay: Selectivity index, ratio of IC50 for CHO cells to IC50 for human MCF7 cells; type: functional
Plasmodium falciparum [17] = assay: Antiplasmodial activity against chloroquine-sensitive asexual erythrocyte stage form Plasmodium falciparum NF54 measured after 48 hrs by pLDH assay; type: functional; conditions: NF54, 48 h
[18] = Thermal stability of the compound assessed as onset of decomposition temperature by thermogravimetric analysis; type: physicochemical
[19] = Thermal stability of the compound assessed as transition temperature by differential scanning calorimetry; type: physicochemical
[20] = Safety index, ratio of compound IC50 to emetine IC50 for CHO cells; type: ADME, cell-based, Cricetulus griseus; conditions: Chinese hamster, read-out: Ratio IC50
[21] = Safety index, ratio of compound IC50 to emetine IC50 for human WI38 cells; type: ADME, cell-based, WI-38; conditions: read-out: Ratio IC50
[22] = Thermal stability of the compound assessed as endotherm temperature by differential scanning calorimetry; type: physicochemical

Row | SMILES | selectivity ratio [1] | Ratio IC50 (MCF7) | IC50 at 48 h [2] [µM] | IC50 [3] [µM] | Ratio IC50 [4] | IC50 [5] [µM] | Ratio IC50 (WI-38) | IC50 (Plasmodium falciparum [6]) [µM] | Tm [7] [°C] | Ratio IC50 (CHO [8]) | Ratio IC50 (CHO [9]) | Ratio IC50 (UACC-62) | IC50 at 48 h [10] [µM] | Ratio IC50 [11] | IC50 [12] [µM] | selectivity ratio [13] | Ratio IC50 [14] | Ratio IC50 [15] | Ratio IC50 (CHO [16]) | IC50 (Plasmodium falciparum [17]) [µM] | other results
1 | C[C@@H]1CC[C@H]2C(C)(COC(=O)c3ccc(F)cc3)O[C@@H]3O[C@]4(C)CC[C@@H]1[C@]32OO4 (stereo partly specified) | 27000 | >40 | > 100 | 12 | 385 | 2.5 | >2 | 0.0044 | 171.9 | >8 | >2 | >8 | > 100 | 1846 | 41.7 | > 27000 | 6415 | 1.2 | >40 | 0.0037 | –
2 | C[C@@H]1CC[C@H]2C(C)(COC(=O)c3cc4ccccc4o3)O[C@@H]3O[C@]4(C)CC[C@@H]1[C@]32OO4 (stereo partly specified) | > 6850 | >6 | > 100 | 78.7 | 2563 | 18.2 | – | 0.0071 | 172.1 | – | – | – | > 100 | 11085 | > 100 | > 6850 | – | 0.5 | >6 | 0.0146 | –
3 | C[C@@H]1CC[C@H]2C(C)(CO)O[C@@H]3O[C@]4(C)CC[C@@H]1[C@]32OO4 (stereo partly specified) | > 24400 | – | > 100 | > 100 | – | > 100 | – | 0.0074 | 160.9 | – | – | – | > 100 | – | > 100 | > 24400 | – | 1.8 | – | 0.0041 | T [18]: 144 °C
4 | C[C@@H]1CC[C@H]2C(C)(C=O)O[C@@H]3O[C@]4(C)CC[C@@H]1[C@]32OO4 (stereo partly specified) | > 14500 | 6 | > 100 | 7.8 | 1560 | 6.4 | >3 | 0.0041 | 174.9 | – | – | >13 | > 100 | 1900 | 36.6 | > 14500 | 8927 | 0.6 | – | 0.0069 | –
5 | C[C@@H]1CC[C@H]2C(C)(COC(=O)c3ccc([N+](=O)[O-])cc3)O[C@@H]3O[C@]4(C)CC[C@@H]1[C@]32OO4 (stereo partly specified) | > 14900 | >2 | > 100 | > 100 | – | 44.4 | >2 | 0.0026 | 172.4 | – | >2 | – | > 100 | 17077 | 56 | > 14900 | 21539 | 0.4 | >2 | 0.0067 | T [18]: 220 °C; T [19]: 110 °C
6 | C[C@@H]1CC[C@H]2C(C)(COC(=O)c3ccc(-c4ccccc4)cc3)O[C@@H]3O[C@]4(C)CC[C@@H]1[C@]32OO4 (stereo partly specified) | > 13700 | >40 | > 100 | 12 | 385 | 2.51 | >2 | 0.0065 | 173.8 | >8 | >2 | >8 | > 100 | 1846 | 41.7 | > 13700 | 6415 | 0.9 | >40 | 0.0073 | –
7 | C[C@@H]1CC[C@H]2C(C)(COC(=O)CCc3ccccc3)O[C@@H]3O[C@]4(C)CC[C@@H]1[C@]32OO4 (stereo partly specified) | > 13500 | >3 | > 100 | 69.3 | 2974 | 34.2 | – | 0.0115 | – | >1.4 | – | >1.4 | > 100 | 6026 | > 100 | > 13500 | – | 1.6 | >3 | 0.0074 | –
8 | C[C@@H]1CC[C@H]2C(C)(COC(=O)[C@@H]3CCCN3C(=O)C(F)(F)F)O[C@@H]3O[C@]4(C)CC[C@@H]1[C@]32OO4 (stereo partly specified) | 12300 | 11 | 31.6 | 3 | 372 | 2.9 | 2 | 0.0078 | 172.2 | 32.4 | 7.5 | 11 | 97.1 | 385 | 13 | 4000 | 1667 | 1 | 33.5 | 0.0079 | T [18]: 126 °C; selectivity ratio [20]: ≤ 600; T [19]: 116 °C; selectivity ratio [21]: ≤ 600
9 | CC(=O)OCC1(C)O[C@@H]2O[C@]3(C)CC[C@H]4[C@H](C)CC[C@@H]1[C@@]24OO3 (stereo partly specified) | > 8920 | – | > 100 | > 100 | – | > 100 | – | 0.0126 | 171.2 | – | – | – | > 100 | – | > 100 | > 8920 | – | 1.1 | – | 0.0112 | T [18]: 164 °C; T [22]: 90 °C
10 | C[C@@H]1CC[C@H]2C(C)(COC(=O)c3cccs3)O[C@@H]3O[C@]4(C)CC[C@@H]1[C@]32OO4 (stereo partly specified) | > 20800 | >2 | > 100 | 39.3 | 7898 | 46.6 | – | 0.0059 | 170.8 | – | – | – | > 100 | 6661 | > 100 | > 20800 | – | 1.2 | >2 | 0.0048 | –
